Source: patent US20230107941A1, “HEPATITIS B CAPSID ASSEMBLY MODULATORS” (Venatorx Pharmaceuticals, Inc., priority 2019, published 2023)
pEC50: −log10 of the molar value.

Assays:
HBV = assay: In vitro antiviral assay: anti-HBV replication in HepAD38 cells (extracellular HBV DNA by QPCR); format: cell-based, hepatitis B virus (genotype D, serotype ayw); conditions: Hepatitis B virus, HePAD38, 168 h, 7 days incubation, extracellular HBV DNA by QPCR, read-out: Anti-HBV EC50
Summary of the method: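 Read-out is extracellular HBV DNA (copies/mL, QPCR standard curve) after 7-day exposure of tet-free HepAD38 cells to 10-fold dilutions from 1 μM down to 10 pM. Values normalised to DMSO vehicle; EC50 from 4-parameter nonlinear regression, with entecavir validating each run.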

[1] = In vitro cytotoxicity assay (MTT cell viability) in HepG2 cells; format: cell-based, human; conditions: human
Summary of the method: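 CC50 was derived by 4-parameter fit of viability relative to vehicle controls, measured as MTT formazan absorbance at 492 nm after 3–4 h of reagent and DMSO solubilization. Before that, HepG2 cells seeded overnight at 20,000/well were incubated 7 days at 37°C with compound from 30 μM down to 1.0 nM in half-log steps.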

Compound | pEC50 (HBV) | CC50 at 7 days [1] [µM]
Cc1cc(NC(=O)c2c(C)c(C(=O)C(=O)N[C@]3(C)C[C@H](O)C3)n(C)c2CC2CC2)ccc1F [Example 123, 2-(cyclopropylmethyl)-N-(4-fluoro-3-methylphenyl)-5-(2-(((1s,3s)-3-hydroxy-1-methylcyclobutyl)amino)-2-oxoacetyl)-1,4-dimethyl-1H-pyrrole-3-carboxamide] | > 7.30 | > 30
Cc1cc(NC(=O)c2c(C(C)C)c(C(=O)C(=O)N[C@H]3CC[C@@H](O)CC3)n(C)c2C)ccc1F [Example 92, N-(4-fluoro-3-methylphenyl)-5-(2-(((1s,4s)-4-hydroxycyclohexyl)amino)-2-oxoacetyl)-4-isopropyl-1,2-dimethyl-1H-pyrrole-3-carboxamide] | 6.30 to 7.30 | > 30
Cc1cc(NC(=O)c2c(C)c(C(=O)C(=O)N[C@@H]3CCCN(C(=O)Nc4ccc(F)c(F)c4)C3)n(C)c2C)ccc1F [Example 35, (R)-N-(3,4-difluorophenyl)-3-(2-(4-((4-fluoro-3-methylphenyl)carbamoyl)-1,3,5-trimethyl-1H-pyrrol-2-yl)-2-oxoacetamido)piperidine-1-carboxamide] | 6.00 to 6.30 | 5 to 30
Cc1cc(NC(=O)c2c(C)c(C(=O)C(=O)N[C@]3(C)C[C@H](O)C3)n(C)c2C2CCCCC2)ccc1F [Example 116, 2-cyclohexyl-N-(4-fluoro-3-methylphenyl)-5-(2-(((1s,3s)-3-hydroxy-1-methylcyclobutyl)amino)-2-oxoacetyl)-1,4-dimethyl-1H-pyrrole-3-carboxamide] | 6.00 to 6.30 | > 30
Cc1c(C(=O)Nc2ccc(F)c(C#N)c2)c(C)n(C)c1C(=O)C(=O)NC(C)(C)C [Example 59, 5-(2-(tert-butylamino)-2-oxoacetyl)-N-(3-cyano-4-fluorophenyl)-1,2,4-trimethyl-1H-pyrrole-3-carboxamide] | > 7.30 | > 30
Cc1cc(F)cc(NC(=O)c2c(C)c(C(=O)C(=O)NC(C)(C)C)n(C)c2C)c1 [Example 67, 5-(2-(tert-butylamino)-2-oxoacetyl)-N-(3-fluoro-5-methylphenyl)-1,2,4-trimethyl-1H-pyrrole-3-carboxamide] | > 7.30 | > 30
Cc1cc(NC(=O)c2c(C)c(C(=O)C(=O)NC3(CC(=O)O)CCCNC3)n(C)c2C)ccc1F (centres unmarked) [Example 146, 2-(3-(2-(4-((4-fluoro-3-methylphenyl)carbamoyl)-1,3,5-trimethyl-1H-pyrrol-2-yl)-2-oxoacetamido)piperidin-3-yl)acetic acid] | < 6.00 | > 30
CC[C@]1(NC(=O)C(=O)c2c(C)c(C(=O)Nc3ccc(F)c(C)c3)c(C)n2C)CC[C@@H](O)CC1 [Example 5, 5-(2-(((1s,4s)-1-ethyl-4-hydroxycyclohexyl)amino)-2-oxoacetyl)-N-(4-fluoro-3-methylphenyl)-1,2,4-trimethyl-1H-pyrrole-3-carboxamide] | > 7.30 | > 30
Cc1cc(NC(=O)c2c(C(C)C)c(C(=O)C(=O)N[C@H]3CC[C@@H](S(C)(=O)=O)CC3)n(C)c2C)ccc1F [Example 95, N-(4-fluoro-3-methylphenyl)-4-isopropyl-1,2-dimethyl-5-(2-(((1s,4s)-4-(methylsulfonyl)cyclohexyl)amino)-2-oxoacetyl)-1H-pyrrole-3-carboxamide] | < 6.00 | > 30
Cc1cc(NC(=O)c2c(C)c(C(=O)C(=O)N[C@H]3CC[C@@H](O)CC3)n(C)c2-c2ccsc2)ccc1F [Example 184, N-(4-fluoro-3-methylphenyl)-5-(2-(((1s,4s)-4-hydroxycyclohexyl)amino)-2-oxoacetyl)-1,4-dimethyl-2-(thiophen-3-yl)-1H-pyrrole-3-carboxamide] | < 6.00 | 5 to 30
CCc1c(C(=O)Nc2ccc(F)c(C)c2)c(C)n(C)c1C(=O)C(=O)N[C@H]1CC[C@@H](S(C)(=O)=O)CC1 [Example 89, 4-ethyl-N-(4-fluoro-3-methylphenyl)-1,2-dimethyl-5-(2-(((1s,4s)-4-(methylsulfonyl)cyclohexyl)amino)-2-oxoacetyl)-1H-pyrrole-3-carboxamide] | > 7.30 | > 30
CCC1(NC(=O)C(=O)c2c(C)c(C(=O)Nc3ccc(F)c(C)c3)c(C)n2C)CCN(C(=O)c2cn(C)nc2C(F)F)CC1 [Example 40, 5-(2-((1-(3-(difluoromethyl)-1-methyl-1H-pyrazole-4-carbonyl)-4-ethylpiperidin-4-yl)amino)-2-oxoacetyl)-N-(4-fluoro-3-methylphenyl)-1,2,4-trimethyl-1H-pyrrole-3-carboxamide] | > 7.30 | > 30
Cc1cc(NC(=O)c2c(C(C)C)c(C(=O)C(=O)N[C@]3(C)C[C@H](O)C3)n(C)c2C)ccc1F [Example 93, N-(4-fluoro-3-methylphenyl)-5-(2-(((1s,3s)-3-hydroxy-1-methylcyclobutyl)amino)-2-oxoacetyl)-4-isopropyl-1,2-dimethyl-1H-pyrrole-3-carboxamide] | < 6.00 | > 30
Cc1cc(NC(=O)c2c(C)c(C(=O)C(=O)NC3(CO)CCN(C(=O)c4ccnn4C)CC3)n(C)c2C)ccc1F [Example 76, N-(4-fluoro-3-methylphenyl)-5-(2-((4-(hydroxymethyl)-1-(1-methyl-1H-pyrazole-5-carbonyl)piperidin-4-yl)amino)-2-oxoacetyl)-1,2,4-trimethyl-1H-pyrrole-3-carboxamide] | > 7.30 | > 30
Cc1c(C(=O)Nc2ccc(F)c(C3CC3)c2)c(C)n(C)c1C(=O)C(=O)NC(C)(C)C [Example 138, 5-(2-(tert-butylamino)-2-oxoacetyl)-N-(3-cyclopropyl-4-fluorophenyl)-1,2,4-trimethyl-1H-pyrrole-3-carboxamide] | > 7.30 | > 30
Cc1cc(NC(=O)c2c(C)c(C(=O)C(=O)N[C@H]3CC[C@@H](O)CC3)n(C)c2C2CC2)ccc1F [Example 115, 2-cyclopropyl-N-(4-fluoro-3-methylphenyl)-5-(2-(((1s,4s)-4-hydroxycyclohexyl)amino)-2-oxoacetyl)-1,4-dimethyl-1H-pyrrole-3-carboxamide] | > 7.30 | > 30
Cc1c(C(=O)Nc2ccc(F)c(C#N)c2)c(C)n(C)c1C(=O)C(=O)N[C@H]1CC[C@@H](O)CC1 [Example 17, N-(3-cyano-4-fluorophenyl)-5-(2-(((1s,4s)-4-hydroxycyclohexyl)amino)-2-oxoacetyl)-1,2,4-trimethyl-1H-pyrrole-3-carboxamide] | > 7.30 | > 30
Cc1c(C(=O)Nc2ccc(F)c(C(=O)O)c2)c(C)n(C)c1C(=O)C(=O)NC(C)(C)C [Example 56, 5-(5-(2-(tert-butylamino)-2-oxoacetyl)-1,2,4-trimethyl-1H-pyrrole-3-carboxamido)-2-fluorobenzoic acid] | 6.00 to 6.30 | > 30
Cc1cc(NC(=O)c2c(C)c(C(=O)C(=O)N[C@H]3C[C@@H]4CC[C@H]3C4)n(C)c2C)ccc1F [Example 22, 5-(2-(((1S,2S,4R)-bicyclo[2.2.1]heptan-2-yl)amino)-2-oxoacetyl)-N-(4-fluoro-3-methylphenyl)-1,2,4-trimethyl-1H-pyrrole-3-carboxamide] | > 7.30 | 5 to 30
Cc1cc(Cl)cc(NC(=O)c2c(C)c(C(=O)C(=O)N[C@]3(C)CC[C@@H](O)CC3)n(C)c2C)c1 [Example 169, N-(3-chloro-5-methylphenyl)-5-(2-(((1r,4r)-4-hydroxy-1-methylcyclohexyl)amino)-2-oxoacetyl)-1,2,4-trimethyl-1H-pyrrole-3-carboxamide] | > 7.30 | 5 to 30
Cc1cc(NC(=O)c2c(C)c(C(=O)C(=O)N[C@]3(C4CC4)CC[C@H](O)CC3)n(C)c2C)ccc1F [Example 6, 5-(2-(((1s,4s)-1-cyclopropyl-4-hydroxycyclohexyl)amino)-2-oxoacetyl)-N-(4-fluoro-3-methylphenyl)-1,2,4-trimethyl-1H-pyrrole-3-carboxamide] | > 7.30 | > 30
Cc1cc(NC(=O)c2c(C)c(C(=O)C(=O)N[C@]3(C)CC[C@H](O)CC3)n(C)c2-c2ccsc2)ccc1F [Example 183, N-(4-fluoro-3-methylphenyl)-5-(2-(((1s,4s)-4-hydroxy-1-methylcyclohexyl)amino)-2-oxoacetyl)-1,4-dimethyl-2-(thiophen-3-yl)-1H-pyrrole-3-carboxamide] | 6.30 to 7.30 | > 30
Cc1cc(NC(=O)c2c(C3CC3)c(C(=O)C(=O)NC3CCN(c4cccnn4)CC3)n(C)c2C)ccc1F [Example 103, 4-cyclopropyl-N-(4-fluoro-3-methylphenyl)-1,2-dimethyl-5-(2-oxo-2-((1-(pyridazin-3-yl)piperidin-4-yl)amino)acetyl)-1H-pyrrole-3-carboxamide] | 6.00 to 6.30 | > 30
Cc1c(C(=O)Nc2ccc(F)c(F)c2)c2n(c1C(=O)C(=O)N[C@@H]1COC[C@H]1N1CCOCC1)CCCC2 [Example 37, N-(3,4-difluorophenyl)-2-methyl-3-(2-(((3S,4S)-4-morpholinotetrahydrofuran-3-yl)amino)-2-oxoacetyl)-5,6,7,8-tetrahydroindolizine-1-carboxamide] | 6.30 to 7.30 | > 30
Cc1cc(NC(=O)c2c(C)c(C(=O)C(=O)NC3CCCN(CC(=O)O)C3)n(C)c2C)ccc1F (centres unmarked) [Example 172, 2-(3-(2-(4-((4-fluoro-3-methylphenyl)carbamoyl)-1,3,5-trimethyl-1H-pyrrol-2-yl)-2-oxoacetamido)piperidin-1-yl)acetic acid] | < 6.00 | > 30
